Key:
[1] = tested on: SW620 human colon carcinoma cells; experiment: SW620 cell growth inhibition; assay type: cell-based; conditions: 72 h incubation
Description: (§1) As part of our medicinal chemistry programme to discover selective inhibitors of Aurora-A,[12] we introduced the 1-benzyl-1H-pyrazol-4-yl moiety at C7 of the imidazo[4,5-b]pyridine scaffold to provide 7a (Table 1). We previously reported 1,3-dimethyl-1H-pyrazol-4-yl as a preferred substituent at the C2 position of the imidazo[4,5-b]pyridine scaffold[11] and this moiety was therefore incorporated into the design of 7a and analogues presented in this study. […] This in vitro profile prompted us to investigate this C7-pyrazole substituted imidazo[4,5-b]pyridine subseries in more detail. Firstly, we attempted to increase biochemical potency against Aurora-A, and also to improve microsomal stability.

Aurora B = Aurora B (Homo sapiens, UniProt Q96GD4); experiment: Aurora-B microfluidic kinase assay; conditions: biochemical; mean of two determinations or mean ±SD for n > 2
Aurora B, sequence (Q96GD4 whole entry): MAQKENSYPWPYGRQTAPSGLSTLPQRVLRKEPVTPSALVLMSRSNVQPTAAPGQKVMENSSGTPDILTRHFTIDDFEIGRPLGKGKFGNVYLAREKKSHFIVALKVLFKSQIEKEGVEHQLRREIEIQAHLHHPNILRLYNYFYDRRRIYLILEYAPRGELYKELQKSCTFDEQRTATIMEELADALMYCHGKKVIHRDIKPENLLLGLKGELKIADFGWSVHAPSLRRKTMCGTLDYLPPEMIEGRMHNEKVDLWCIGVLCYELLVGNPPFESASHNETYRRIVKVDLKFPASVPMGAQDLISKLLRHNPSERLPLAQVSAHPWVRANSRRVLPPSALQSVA
Description: as §1
(§2) [17] Aurora-A and Aurora-B IC50 values were determined by using a microfluidic assay which monitors the separation of a phosphorylated product from its substrate, as described in Ref. [12].

HER4 = HER4 (Homo sapiens, UniProt Q15303); experiment: Kinase selectivity profiling; assay type: biochemical; conditions: 1 µM, assay duplicates
Protocol: (§3) [20] Kinase selectivity profiling for compounds 7a, 7d, 14d and 14g was carried out at the International Centre for Protein Kinase Profiling, Division of Signal Transduction Therapy, University of Dundee.
(§4) Table S1: Kinase selectivity profiling of compounds 7a and 7d in a 102-kinase panel screened at a concentration of 1 µM.
(§5) Table S2: Kinase selectivity profiling of compounds 14d and 14g in a 105-kinase panel screened at a concentration of 1 µM.

GSK3b = GSK3b (Homo sapiens, UniProt P49841); experiment: Kinase selectivity profiling; assay type: biochemical; conditions: for GSK3b % activity remaining: 1 µM, assay duplicates
GSK3b, sequence (P49841 whole entry): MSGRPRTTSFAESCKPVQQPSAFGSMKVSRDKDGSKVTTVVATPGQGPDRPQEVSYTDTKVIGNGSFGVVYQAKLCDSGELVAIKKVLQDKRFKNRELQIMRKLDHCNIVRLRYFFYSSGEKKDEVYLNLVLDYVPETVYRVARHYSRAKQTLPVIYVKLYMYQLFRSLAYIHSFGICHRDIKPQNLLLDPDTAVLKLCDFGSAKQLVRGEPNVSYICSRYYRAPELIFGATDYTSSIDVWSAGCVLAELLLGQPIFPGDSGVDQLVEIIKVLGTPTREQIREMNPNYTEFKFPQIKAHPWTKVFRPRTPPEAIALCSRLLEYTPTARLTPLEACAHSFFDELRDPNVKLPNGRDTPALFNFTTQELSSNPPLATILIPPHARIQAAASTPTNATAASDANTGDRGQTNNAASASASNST
Protocol: as §3, §4, §5

VEG-FR = VEG-FR (Homo sapiens, UniProt P17948); experiment: Kinase selectivity profiling; assay type: biochemical; conditions: for VEGFR inhibition: 1 μM; for VEG-FR % activity remaining: 1 µM, assay duplicates
VEG-FR, sequence (P17948 27-1338): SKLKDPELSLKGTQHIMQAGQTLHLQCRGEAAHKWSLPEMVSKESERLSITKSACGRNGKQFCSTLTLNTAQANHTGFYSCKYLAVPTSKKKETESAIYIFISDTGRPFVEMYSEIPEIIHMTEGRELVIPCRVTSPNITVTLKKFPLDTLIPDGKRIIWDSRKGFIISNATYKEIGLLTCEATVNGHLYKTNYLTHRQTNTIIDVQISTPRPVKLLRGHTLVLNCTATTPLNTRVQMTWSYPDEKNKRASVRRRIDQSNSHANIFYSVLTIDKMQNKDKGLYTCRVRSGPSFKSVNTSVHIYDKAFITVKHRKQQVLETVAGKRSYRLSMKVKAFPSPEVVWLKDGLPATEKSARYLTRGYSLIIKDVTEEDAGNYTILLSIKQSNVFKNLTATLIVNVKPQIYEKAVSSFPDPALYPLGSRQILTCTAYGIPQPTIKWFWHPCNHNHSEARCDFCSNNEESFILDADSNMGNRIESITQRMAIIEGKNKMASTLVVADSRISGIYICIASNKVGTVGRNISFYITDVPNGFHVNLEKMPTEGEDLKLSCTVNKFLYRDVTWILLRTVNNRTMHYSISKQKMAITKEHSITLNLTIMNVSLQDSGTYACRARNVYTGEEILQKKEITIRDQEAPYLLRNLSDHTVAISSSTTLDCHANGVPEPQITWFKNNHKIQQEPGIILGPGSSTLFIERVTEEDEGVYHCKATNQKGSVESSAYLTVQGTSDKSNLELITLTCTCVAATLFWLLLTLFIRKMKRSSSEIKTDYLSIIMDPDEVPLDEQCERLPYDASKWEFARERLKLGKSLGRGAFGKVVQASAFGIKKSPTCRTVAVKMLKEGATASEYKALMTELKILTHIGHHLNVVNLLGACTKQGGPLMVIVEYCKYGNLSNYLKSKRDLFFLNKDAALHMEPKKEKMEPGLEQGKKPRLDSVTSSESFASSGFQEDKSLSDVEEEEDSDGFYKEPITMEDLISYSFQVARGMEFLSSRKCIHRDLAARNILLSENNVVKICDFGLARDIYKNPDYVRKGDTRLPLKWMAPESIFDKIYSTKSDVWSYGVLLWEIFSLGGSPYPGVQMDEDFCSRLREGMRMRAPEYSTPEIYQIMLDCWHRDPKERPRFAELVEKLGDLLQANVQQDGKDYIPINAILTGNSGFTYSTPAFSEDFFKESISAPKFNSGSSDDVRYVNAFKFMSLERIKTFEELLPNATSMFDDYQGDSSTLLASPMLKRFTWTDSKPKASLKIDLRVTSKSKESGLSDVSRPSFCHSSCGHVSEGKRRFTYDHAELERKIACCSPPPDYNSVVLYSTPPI
Protocol: as §3, §4, §5

ERK8 = target: T1, ERK8 (Homo sapiens, UniProt Q8TD08); experiment: Kinase selectivity profiling; assay type: biochemical; conditions: for ERK8 inhibition: 1 μM; for ERK8 % activity remaining: 1 µM, assay duplicates
T1 sequence (Q8TD08 1-544): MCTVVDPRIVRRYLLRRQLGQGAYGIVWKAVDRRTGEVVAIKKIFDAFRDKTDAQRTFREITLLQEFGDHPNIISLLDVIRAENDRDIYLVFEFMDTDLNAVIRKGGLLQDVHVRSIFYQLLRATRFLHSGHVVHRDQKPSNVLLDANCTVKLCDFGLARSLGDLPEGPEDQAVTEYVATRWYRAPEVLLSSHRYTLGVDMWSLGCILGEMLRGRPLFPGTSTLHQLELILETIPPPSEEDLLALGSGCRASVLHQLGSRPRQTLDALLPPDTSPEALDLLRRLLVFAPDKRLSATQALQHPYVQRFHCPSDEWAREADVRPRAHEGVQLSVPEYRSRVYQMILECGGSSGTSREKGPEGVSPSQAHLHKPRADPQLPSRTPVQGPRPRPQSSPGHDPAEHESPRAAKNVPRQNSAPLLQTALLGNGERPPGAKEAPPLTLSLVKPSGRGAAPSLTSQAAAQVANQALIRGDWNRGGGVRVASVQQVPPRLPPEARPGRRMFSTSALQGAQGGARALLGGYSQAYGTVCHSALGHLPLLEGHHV
Protocol: as §3, §4, §5

EF2K = EF2K (Homo sapiens, UniProt O00418); experiment: Kinase selectivity profiling; assay type: biochemical; conditions: 1 µM, assay duplicates
Protocol: as §3, §4, §5

TBK1 = TBK1 (Homo sapiens, UniProt Q9UHD2); experiment: Kinase selectivity profiling; assay type: biochemical; conditions: 1 µM, assay duplicates
Protocol: as §3, §4, §5

PAK2 = PAK2 (Homo sapiens, UniProt Q13177); experiment: Kinase selectivity profiling; assay type: biochemical; conditions: 1 µM, assay duplicates
PAK2, sequence (Q13177 whole entry): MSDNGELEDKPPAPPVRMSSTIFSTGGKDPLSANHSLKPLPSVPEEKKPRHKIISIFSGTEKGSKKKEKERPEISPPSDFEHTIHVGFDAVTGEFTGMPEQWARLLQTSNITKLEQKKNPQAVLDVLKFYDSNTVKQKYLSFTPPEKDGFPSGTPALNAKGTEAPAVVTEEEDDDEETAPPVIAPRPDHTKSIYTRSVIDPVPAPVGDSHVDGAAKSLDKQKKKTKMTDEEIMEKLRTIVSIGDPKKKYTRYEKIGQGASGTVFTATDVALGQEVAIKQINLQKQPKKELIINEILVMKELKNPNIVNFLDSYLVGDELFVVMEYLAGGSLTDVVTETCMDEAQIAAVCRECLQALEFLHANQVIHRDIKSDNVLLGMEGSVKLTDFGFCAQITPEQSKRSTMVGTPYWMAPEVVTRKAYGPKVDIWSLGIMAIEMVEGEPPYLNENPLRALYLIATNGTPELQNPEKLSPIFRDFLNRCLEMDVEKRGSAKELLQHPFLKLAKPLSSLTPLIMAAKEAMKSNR
Protocol: as §3, §4, §5

IKKb = IKKb (Homo sapiens, UniProt O14920); experiment: Kinase selectivity profiling; assay type: biochemical; conditions: 1 µM, assay duplicates
Protocol: as §3, §4, §5

CHK2 = CHK2 (Homo sapiens, UniProt O96017); experiment: Kinase selectivity profiling; assay type: biochemical; conditions: 1 µM, assay duplicates
Protocol: as §3, §4, §5

CHK1 = CHK1 (Homo sapiens, UniProt O14757); experiment: Kinase selectivity profiling; assay type: biochemical; conditions: 1 µM, assay duplicates
CHK1, sequence (O14757 whole entry): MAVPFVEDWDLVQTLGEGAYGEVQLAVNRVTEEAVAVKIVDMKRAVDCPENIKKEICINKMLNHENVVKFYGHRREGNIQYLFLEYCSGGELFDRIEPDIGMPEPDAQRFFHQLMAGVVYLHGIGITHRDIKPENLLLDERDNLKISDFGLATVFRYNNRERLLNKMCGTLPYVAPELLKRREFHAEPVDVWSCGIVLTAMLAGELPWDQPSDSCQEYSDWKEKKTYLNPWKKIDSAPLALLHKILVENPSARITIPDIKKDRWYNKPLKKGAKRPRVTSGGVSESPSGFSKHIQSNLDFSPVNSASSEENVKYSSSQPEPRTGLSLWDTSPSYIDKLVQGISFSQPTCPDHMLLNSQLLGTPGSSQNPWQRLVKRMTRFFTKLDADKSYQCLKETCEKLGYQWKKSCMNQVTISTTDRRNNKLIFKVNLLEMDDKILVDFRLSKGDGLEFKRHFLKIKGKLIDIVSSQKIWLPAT
Protocol: as §3, §4, §5

LKB1 = LKB1 (Homo sapiens, UniProt Q15831); experiment: Kinase selectivity profiling; assay type: biochemical; conditions: 1 µM, assay duplicates
Protocol: as §3, §4, §5

DYRK2 = DYRK2 (Homo sapiens, UniProt Q92630); experiment: Kinase selectivity profiling; assay type: biochemical; conditions: 1 µM, assay duplicates
Protocol: as §3, §4, §5

EPH-A4 = EPH-A4 (Homo sapiens, UniProt P54764); experiment: Kinase selectivity profiling; assay type: biochemical; conditions: 1 µM, assay duplicates
Protocol: as §3, §4, §5

JNK2 = JNK2 (Homo sapiens, UniProt P45984); experiment: Kinase selectivity profiling; assay type: biochemical; conditions: 1 µM, assay duplicates
Protocol: as §3, §4, §5

NUAK1 = NUAK1 (Homo sapiens, UniProt O60285); experiment: Kinase selectivity profiling; assay type: biochemical; conditions: 1 µM, assay duplicates
Protocol: as §3, §4, §5

HIPK3 = HIPK3 (Homo sapiens, UniProt Q9H422); experiment: Kinase selectivity profiling; assay type: biochemical; conditions: 1 µM, assay duplicates
Protocol: as §3, §4, §5

HIPK2 = HIPK2 (Homo sapiens, UniProt Q9H2X6); experiment: Kinase selectivity profiling; assay type: biochemical; conditions: 1 µM, assay duplicates
HIPK2, sequence (Q9H2X6 whole entry): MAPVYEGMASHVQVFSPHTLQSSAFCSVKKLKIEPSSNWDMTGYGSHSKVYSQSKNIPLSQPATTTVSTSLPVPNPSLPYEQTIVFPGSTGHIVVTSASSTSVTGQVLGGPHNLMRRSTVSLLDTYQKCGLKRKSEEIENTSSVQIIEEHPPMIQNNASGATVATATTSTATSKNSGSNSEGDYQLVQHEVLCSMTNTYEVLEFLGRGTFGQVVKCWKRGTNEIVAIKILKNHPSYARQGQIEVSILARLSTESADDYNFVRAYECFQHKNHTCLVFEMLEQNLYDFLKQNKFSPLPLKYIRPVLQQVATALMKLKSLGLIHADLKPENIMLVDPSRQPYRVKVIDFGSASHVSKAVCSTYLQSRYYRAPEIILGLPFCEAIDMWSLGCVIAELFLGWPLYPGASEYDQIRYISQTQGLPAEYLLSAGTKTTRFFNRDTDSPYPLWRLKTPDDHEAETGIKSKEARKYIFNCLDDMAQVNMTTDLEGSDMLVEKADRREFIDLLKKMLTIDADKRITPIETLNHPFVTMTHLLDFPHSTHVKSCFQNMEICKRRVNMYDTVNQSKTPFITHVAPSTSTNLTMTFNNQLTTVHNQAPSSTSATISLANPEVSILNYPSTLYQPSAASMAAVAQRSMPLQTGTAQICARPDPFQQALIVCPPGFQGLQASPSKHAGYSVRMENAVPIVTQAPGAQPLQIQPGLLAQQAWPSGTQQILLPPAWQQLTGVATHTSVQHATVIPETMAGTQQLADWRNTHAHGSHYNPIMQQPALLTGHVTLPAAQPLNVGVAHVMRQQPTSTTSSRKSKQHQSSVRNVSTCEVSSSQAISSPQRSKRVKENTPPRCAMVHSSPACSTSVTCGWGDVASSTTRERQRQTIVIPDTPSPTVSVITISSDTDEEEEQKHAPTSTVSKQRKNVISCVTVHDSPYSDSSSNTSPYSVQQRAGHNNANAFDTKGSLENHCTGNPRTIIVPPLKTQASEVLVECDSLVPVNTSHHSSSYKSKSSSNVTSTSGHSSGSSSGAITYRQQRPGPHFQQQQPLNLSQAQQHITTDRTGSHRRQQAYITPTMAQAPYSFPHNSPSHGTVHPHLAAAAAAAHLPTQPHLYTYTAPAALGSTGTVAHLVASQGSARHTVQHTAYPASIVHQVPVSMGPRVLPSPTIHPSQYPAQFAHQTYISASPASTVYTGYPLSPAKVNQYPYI
Protocol: as §3, §4, §5

FGF-R1 = FGF-R1 (Homo sapiens, UniProt P11362); experiment: Kinase selectivity profiling; assay type: biochemical; conditions: 1 µM, assay duplicates
Protocol: as §3, §4, §5

AMPK = experiment: Kinase selectivity profiling; assay type: biochemical; conditions: 1 µM, assay duplicates
Protocol: as §3, §4, §5

p38a MAPK = p38a MAPK (Homo sapiens, UniProt Q16539); experiment: Kinase selectivity profiling; assay type: biochemical; conditions: 1 µM, assay duplicates
p38a MAPK, sequence (Q16539 whole entry): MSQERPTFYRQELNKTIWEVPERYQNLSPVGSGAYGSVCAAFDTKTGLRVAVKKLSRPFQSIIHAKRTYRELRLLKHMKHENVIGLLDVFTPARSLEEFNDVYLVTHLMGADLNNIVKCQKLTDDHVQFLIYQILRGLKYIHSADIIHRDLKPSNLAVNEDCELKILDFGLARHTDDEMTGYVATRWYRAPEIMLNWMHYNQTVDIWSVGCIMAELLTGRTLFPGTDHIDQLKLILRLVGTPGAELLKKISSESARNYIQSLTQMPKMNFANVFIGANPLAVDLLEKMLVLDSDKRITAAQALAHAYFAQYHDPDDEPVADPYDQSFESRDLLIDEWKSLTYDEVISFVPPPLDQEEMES
Protocol: as §3, §4, §5

[2] = Mouse liver microsomal stability; assay type: in vitro ADME; conditions: percentage of compound metabolised after a 30 min incubation, mouse liver microsomes
Protocol: [18] MLM and HLM microsomal stabilities were determined as described in Ref. [12].

Aurora A = target: T2, Aurora A (Homo sapiens, UniProt O14965); experiment: Aurora-A microfluidic kinase assay; assay type: biochemical; conditions: biochemical; mean of two determinations or mean ±SD for n > 2
T2 sequence (O14965 1-403): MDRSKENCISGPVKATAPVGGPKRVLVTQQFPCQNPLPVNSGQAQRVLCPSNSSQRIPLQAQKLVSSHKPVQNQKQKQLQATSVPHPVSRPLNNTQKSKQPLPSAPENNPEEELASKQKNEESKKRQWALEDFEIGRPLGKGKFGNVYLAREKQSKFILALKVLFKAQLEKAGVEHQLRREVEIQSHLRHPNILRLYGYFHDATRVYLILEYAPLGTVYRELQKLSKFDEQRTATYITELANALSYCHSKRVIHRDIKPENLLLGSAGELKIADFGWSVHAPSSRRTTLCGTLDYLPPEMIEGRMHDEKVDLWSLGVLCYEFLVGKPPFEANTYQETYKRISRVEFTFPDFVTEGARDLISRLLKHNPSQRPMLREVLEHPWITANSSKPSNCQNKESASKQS
Description: as §1, §2

Structure (SMILES)	GI50 [1]	IC50 (Aurora B)	HER4 % activity remaining (HER4)	GSK3b % activity remaining (GSK3b)	VEGFR inhibition (VEG-FR)	VEG-FR % activity remaining (VEG-FR)	ERK8 inhibition (ERK8)	ERK8 % activity remaining (ERK8)	EF2K % activity remaining (EF2K)	TBK1 % activity remaining (TBK1)	PAK2 % activity remaining (PAK2)	IKKb % activity remaining (IKKb)	CHK2 % activity remaining (CHK2)	CHK1 % activity remaining (CHK1)	LKB1 % activity remaining (LKB1)	DYRK2 % activity remaining (DYRK2)	EPH-A4 % activity remaining (EPH-A4)	JNK2 % activity remaining (JNK2)	NUAK1 % activity remaining (NUAK1)	HIPK3 % activity remaining (HIPK3)	further results
Cc1nn(C)cc1-c1nc2c(-c3cnn(Cc4ccccc4)c3)c(Cl)cnc2[nH]1 [Compound 7a]	180 nM	461 ± 147 nM	89%	2%	greater than 80%	6%	greater than 80%	6%	94%	24%	82%	48%	26%	68%	49%	29%	54%	17%	1%	9%	GSK3β inhibition (GSK3b; 1 μM): greater than 80%; HIPK2 % activity remaining (HIPK2): 6%; FGF-R1 % activity remaining (FGF-R1): 5%; AMPK % activity remaining (AMPK): 50%; p38a MAPK % activity remaining (p38a MAPK): 90%; MLM % met/30 min [2]: 40%; IC50 (Aurora A): 212 ± 107 nM
Cc1cc(Cn2cc(-c3c(Cl)cnc4[nH]c(-c5cn(C)nc5C)nc34)cn2)no1 [Compound 14d]	350 nM	75 nM	73%	47%	≥ 80%	7%	≥ 80%	1%	102%	7%	102%	63%	32%	52%	62%	34%	51%	48%	8%	49%	HIPK2 % activity remaining (HIPK2): 11%; FGF-R1 % activity remaining (FGF-R1): 7%; AMPK % activity remaining (AMPK): 34%; p38a MAPK % activity remaining (p38a MAPK): 85%; MLM % met/30 min [2]: 35%; IC50 (Aurora A): 35 nM
